Data from PubChem BioAssay AID1361 (SRMLSC, 2008).
The source made the active and inactive calls. No rule for the calls is given here.

Experiment: mitochondrial fusion inhibitors, confirmation, cell-based, chemical genetic, wild-type and mutant (AID 1361)
Conditions: Cell-based mitochondrial fusion phenotype, imaging
[1] = mutant cells, measured here: mutant cell line IC50

Row | SMILES | IC50 (WT cells) | IC50 [1] [µM]
1 | CCC(=O)Nc1ccc(N2CCN(CC)CC2)c(Cl)c1 | > 25 µM (inactive) | > 25
2 | CC(C)(C)c1ccc(S(=O)(=O)Nc2ccc(Cc3ccncc3)cc2)cc1 | 23.3 µM | > 25
3 | CCOCCCNC(=S)N1CCCN(c2nc3c(C)c(C)ccc3cc2C#N)CC1 | 11.8 µM | > 25
4 | COc1ccc(-c2nnc(SCc3cc(C)cc(C)c3)o2)cc1 | 12.9 µM | > 25
5 | Cc1cccn2c(=O)c(C=NCc3ccco3)c(Nc3ccc(SC(F)F)cc3)nc12 | > 25 µM (inactive) | > 25
6 | CC1(C(=O)N(Cc2ccccc2)Cc2ccccc2)CC1(Br)Br (configuration not stated) | 15.7 µM | > 25
7 | COC(=O)C1CN(C#N)N(c2ccc(Cl)cc2)C12c1ccccc1-c1ccccc12 (configuration not stated) | 2.48 µM | > 25
8 | CC(C)N(C(=S)NC1CCCCC1)c1ccccc1 | > 25 µM (inactive) | > 25
9 | Cc1nc(N2CCCCC2)c2c(-c3cccs3)csc2n1 | 22.4 µM | > 25
10 | COc1ccc(OC)c(-c2cc(C3CCN(c4cc(Cl)nc(N)n4)CC3)[nH]n2)c1 | > 25 µM (inactive) | > 25
11 | CCOc1ccc(NC(=S)N(CCc2c(C)[nH]c3ccc(C)cc23)Cc2ccco2)cc1 | 6.2 µM | > 25
12 | O=c1cc(N2CCCCC2)c(-c2ccccc2)nn1Cc1c(Cl)cccc1Cl | 5.39 µM | > 25
13 | Cc1nc(N2CCCCC2)c2c(C)c(C(=O)Nc3ccccc3C(F)(F)F)sc2n1 | > 25 µM (inactive) | > 25
14 | Cc1ccc2c(N)c(C#N)sc2n1 | > 25 µM (inactive) | > 25
15 | CCN(CC)c1ccc(/C=N/NC(=S)NCc2ccco2)cc1 | 11.6 µM | > 25
16 | CC(NC(=O)/C(=C/c1ccc(OC(F)F)cc1)c1ccccc1)c1ccccc1 (configuration not stated) | 11.5 µM | > 25
17 | COc1ccc(NC(=O)CSc2ccc3c(c2)OCCO3)cc1OC | > 25 µM (inactive) | > 25
18 | Cc1ccccc1CN(C)CC(=O)Nc1ccccc1-c1ccccc1 | 16.3 µM | > 25
19 | CCC(C)(C)c1ccc(OCC(=O)N(C)C)c(C(C)(C)CC)c1 | 20.9 µM | > 25
20 | CC(C)=C1C2CCC1C(C(=O)Nc1sc(C)c(-c3ccc(C(C)C)cc3)c1C(N)=O)C2C(=O)O (configuration not stated) | 20.8 µM | > 25
21 | COC(=O)c1c(NC(=O)CN2CCC3(O)CCCCC3C2c2cc(OC)ccc2OC)sc(C)c1C (configuration not stated) | 8.13 µM | > 25

Row | SMILES | IC50 (WT cells) | IC50 [1] [µM]
22 | CCC(CC)C(=O)c1c[nH]c(C(=O)NCCCN2CCOCC2)c1 | > 25 µM (inactive) | > 25
23 | NS(=O)(=O)c1ccc(N2N=C(c3ccccc3)CC2c2ccc(F)cc2)cc1 (configuration not stated) | 12 µM | > 25
24 | c1ccc(-c2cn3c(n2)CCc2ccc4cccnc4c2-3)cc1 | 23.7 µM (inactive) | 21.3
25 | O=C(c1ccc2c(c1)OCO2)N(Cc1cccs1)C1(C(=O)NC2CCCCC2)CCCCC1 | > 25 µM (inactive) | > 25
26 | CCOC(=O)N1CCC(NC(=O)c2cc(-c3ccc(F)cc3)[nH]c2C)CC1 | > 25 µM (inactive) | > 25
27 | CCCCSc1nnc(CNC(=O)C23CC4CC(CC(C4)C2)C3)n1Cc1ccccc1 | > 25 µM (inactive) | > 25
28 | CCOc1cccc(-c2nn(-c3ccccc3)cc2/C=C(/C#N)C(=O)NCCCn2ccnc2)c1 | > 25 µM (inactive) | > 25
29 | O=C(c1ccccc1)c1cc(Cl)ccc1N1C(=O)C=CC1=O | > 25 µM (inactive) | > 25
30 | Cc1nc(-c2cccc(NS(=O)(=O)c3cccc4ccccc34)c2)cs1 | 15.9 µM | > 25
31 | C(=N\Nc1nc(Nc2ccccc2)nc(Nc2ccccc2)n1)/c1cccnc1 | 20.9 µM | > 25
32 | CCN1C(=O)S/C(=C/c2c(OCc3ccc(C(=O)O)cc3)ccc3ccccc23)C1=O | 18.7 µM | > 25
33 | CCc1ccc(OCC2c3cc(OC)c(OC)cc3CCN2C(=S)NC)cc1 (configuration not stated) | > 25 µM (inactive) | > 25
34 | CC1(C)CC(C(CCN(Cc2ccccc2)C(=O)c2ccco2)c2ccc(F)cc2)CCO1 (configuration not stated) | 16.8 µM | > 25
35 | CCOC(=O)/C(=C/c1ccc(N2CCC(c3ccccc3)=N2)cc1)C(C)=O | > 25 µM (inactive) | > 25
36 | COc1ccc(NS(=O)(=O)c2cc(C(=O)O)ccc2C)cc1 | > 25 µM (inactive) | > 25
37 | CCc1ccc(-c2nn(-c3ccccc3)cc2CSC(=N)N)cc1 | > 25 µM (inactive) | > 25
38 | CC1=CC(C)(C)N(C(=O)c2ccc(F)cc2)c2cc3c(cc21)OCO3 | > 25 µM (inactive) | > 12.5
39 | CCCNC(=O)c1ccccc1NC(=O)CSCc1ccc(OC)cc1 | > 25 µM (inactive) | > 25
40 | COC(=O)c1ccc(NCC(=O)c2ccccc2)cc1 | > 25 µM (inactive) | > 25
41 | C/C(=N\Nc1nc(N2CCCCCC2)nc(N2CCCCCC2)n1)c1ccccc1 | 12.6 µM | > 25
